The results in this text go back to US7012089B2, “[1,4]Diazocino[7,8,1-hi]indole derivatives as antipsychotic and antiobesity agents” (Wyeth, priority 2002, dated 2006).

The structures appear in SMILES notation. Where a name gives a salt, the structure may show the parent alone.

In general, melting point refers to the temperature of the solid-liquid transition. `c1cc2c3c(c1)c1c(n3CCNCC2)CCCC1` (as salt: fumarate) [Example 6, 2,3,4,5,9,10,11,12-Octahydro-1H-[1,4]diazocino[7,8,1-jk]carbazole]: the melting point fell in the range of 174 to 176 °C.

`CN1CCc2cccc3c2N(CC1)C1CCCCC31` (stereo not drawn) (as salt: fumarate) [Example 7, 3-Methyl-2,3,4,5,8b,9,10,11,12,12a-decahydro-1H-[1,4]diazocino[7,8,1-jk]carbazole] returned a melting point of 150 to 153 °C.

In turn, `c1cc2c3c(c1)C1CCCCC1N3CCNCC2` (stereo not drawn) (as salt: fumarate) [Example 8, 2,3,4,5,8b,9,10,11,12,12a-Decahydro-1H-[1,4]diazocino[7,8,1-jk]carbazole] yielded a melting point of 169 to 171 °C.

`CN1CCc2cccc3c4c(n(c23)CC1)CCCCC4` (as salt: fumarate) [Example 9, 3-Methyl-2,3,4,5,10,11,12,13-octahydro-1H,9H-cyclohepta[b][1,4]diazocino[7,8,1-hi]indole] returned a melting point of 190 to 192 °C.

With `c1cc2c3c(c1)c1c(n3CCNCC2)CCCCC1` (as salt: fumarate) [Example 10, 2,3,4,5,10,11,12,13-Octahydro-1H,9H-cyclohepta[b]1,4]diazocino[7,8,1-hi]indole], the melting point fell in the range of 216 to 218 °C.

Compound `CN1CCc2c(Cl)ccc3c2N(CC1)C1CCCC31` (stereo not drawn) (as salt: fumarate) [Example 15, 6-Chloro-3-Methyl-2,3,4,5,9,10,11,11a-octahydro-1H,8bH-cyclopenta[b][1,4]diazocino[7,8,1-hi]indole] gave a melting point of 196 to 199 °C.

For `CN1CCc2c(Cl)ccc3c2N(CC1)C1CCCCCC31` (stereo not drawn) (as salt: fumarate) [Example 16, 6-Chloro-3-methyl-2,3,4,5,9,10,11,12,13,13a-decahydro-1H,8bH-cyclohepta[b][1,4]diazocino[7,8,1-hi]indole], the melting point is 190 to 193 °C.

Take `Clc1ccc2c3c(n4c2c1CCNCC4)CCC3` (as salt: fumarate) [Example 17, 6-Chloro-2,3,4,5,10,11-hexahydro-1H,9H-cyclopenta[b][1,4]diazocino[7,8,1-hi]indole]: the melting point lay within 188 to 190 °C.

Turning to `Clc1ccc2c3c(n4c2c1CCNCC4)CCCC3` (as salt: fumarate) [Example 18, 6-Chloro-2,3,4,5,9,10,11,12-octahydro-1H-[1,4]diazocino[7,8,1-jk]carbazole], the melting point is 208 to 210 °C.

`Clc1ccc2c3c(n4c2c1CCNCC4)CCCCC3` (as salt: fumarate) [Example 19, 6-Chloro-2,3,4,5,10,11,12,13-octahydro-1H,9H-cyclohepta[b][1,4]diazocino[7,8,1-hi]indole] returned a melting point of 208 to 210 °C.

Compound `Clc1ccc2c3c1CCNCCN3C1CCCC21` (stereo not drawn) (as salt: fumarate) [Example 20, 6-Chloro-2,3,4,5,9,10,11,11a-octahydro-1H,8bH-cyclopenta[b][1,4]diazocino[7,8,1-hi]indole] displayed a melting point of 188 to 189 °C.

Turning to `CCN1CCc2c(Cl)ccc3c2N(CC1)C1CCCC31` (stereo not drawn) (as salt: fumarate) [Example 21, 6-Chloro-3-ethyl-2,3,4,5,9,10,11,11a-octahydro-1H,8bH-cyclopenta[b][1,4]diazocino[7,8,1-hi]indole], the melting point is 199 to 201 °C.

With `Clc1ccc2c3c1CCNCCN3C1CCCCCC21` (stereo not drawn) (as salt: fumarate) [Example 22, 6-Chloro-2,3,4,5,9,10,11,12,13,13a-decahydro-1H,8bH-cyclohepta[b][1,4]diazocino[7,8,1-hi]indole], the melting point lay within 168 to 170 °C.

The compound `CCN1CCc2c(Cl)ccc3c2N(CC1)C1CCCCC31` (stereo not drawn) (as salt: fumarate) [Example 23, 6-Chloro-3-ethyl-2,3,4,5,8b,9,10,11,12,12a-decahydro-1H-[1,4]diazocino[7,8,1-jk]carbazole] had a melting point of 184 to 187 °C.

`CN1CCc2ccc(F)c3c4c(n(c23)CC1)CCC4` (as salt: fumarate) [Example 24, 8-Fluoro-3-methyl-2,3,4,5,10,11-hexahydro-1H,9H-cyclopenta[b][1,4]diazocino[7,8,1-hi]indole] yielded a melting point of 168 to 170 °C.

`CN1CCc2ccc(F)c3c4c(n(c23)CC1)CCCC4` (as salt: fumarate) [Example 25, 8-Fluoro-3-methyl-2,3,4,5,9,10,11,12-octahydro-1H-[1,4]diazocino[7,8,1-jk]carbazole] showed a melting point of 206 to 208 °C.

The compound `CN1CCc2ccc(F)c3c2N(CC1)C1CCCC31` (stereo not drawn) (as salt: fumarate) [Example 26, 8-Fluoro-3-methyl-2,3,4,5,9,10,11,11a-octahydro-1H,8bH-cyclopenta[b][1,4]diazocino[7,8,1-hi]indole] gave a melting point of 180 to 182 °C.

Compound `CN1CCc2ccc(F)c3c2N(CC1)C1CCCCC31` (stereo not drawn) (as salt: fumarate) [Example 27, 8-Fluoro-3-methyl-2,3,4,5,8b,9,10,11,12,12a-decahydro-1H-[1,4]diazocino[7,8,1-jk]carbazole] displayed a melting point of 168 to 170 °C.

In the case of `Fc1ccc2c3c1c1c(n3CCNCC2)CCC1` (as salt: fumarate) [Example 28, 8-Fluoro-2,3,4,5,10,11-hexahydro-1H,9H-cyclopenta[b][1,4]diazocino[7,8,1-hi]indole], the melting point was 199 to 200 °C.

As for `Fc1ccc2c3c1c1c(n3CCNCC2)CCCC1` (as salt: fumarate) [Example 29, 8-Fluoro-2,3,4,5,9,10,11,12-octahydro-1H-[1,4]diazocino[7,8,1-jk]carbazole], the melting point lay within 177 to 179 °C.

The compound `Fc1ccc2c3c1C1CCCC1N3CCNCC2` (stereo not drawn) (as salt: fumarate) [Example 30, 8-Fluoro-2,3,4,5,9,10,11,11a-octahydro-1H,8bH-cyclopenta[b][1,4]diazocino[7,8,1-hi]indole] showed a melting point of 169 to 170 °C.

In the case of `Fc1ccc2c3c1C1CCCCC1N3CCNCC2` (stereo not drawn) (as salt: fumarate) [Example 31, 8-Fluoro-2,3,4,5,8b,9,10,11,12,12a-decahydro-1H[1,4]diazocino[7,8,1-jk]carbazole], the melting point lay in the range of 189 to 190 °C.

For the compound `CN1CCc2ccc(Cl)c3c4c(n(c23)CC1)CCC4` (as salt: fumarate) [Example 34, 8-Chloro-3-methyl-2,3,4,5,10,11-hexahydro-1H,9H-cyclopenta[b][1,4]diazocino[7,8,1-hi]indole], the melting point lay within 209 to 211 °C.

As for `CN1CCc2ccc(Cl)c3c4c(n(c23)CC1)CCCC4` (as salt: fumarate) [Example 35, 8-Chloro-3-methyl-2,3,4,5,9,10,11,12-octahydro-1H-[1,4]diazocino[7,8,1-jk]carbazole], the melting point fell in the range of 212 to 214 °C.

The compound `CN1CCc2ccc(Cl)c3c2N(CC1)C1CCCC31` (stereo not drawn) (as salt: fumarate) [Example 36, 8-Chloro-3-methyl-2,3,4,5,9,10,11,11a-octahydro-1H,8bH-cyclopenta[b][1,4]diazocino[7,8,1-hi]indole] had a melting point of 179 to 181 °C.

For `CN1CCc2ccc(Cl)c3c2N(CC1)C1CCCCC31` (stereo not drawn) (as salt: fumarate) [Example 37, 8-Chloro-3-methyl-2,3,4,5,8b,9,10,11,12,12a-decahydro-1H-[1,4]diazocino[7,8,1-jk]carbazole], the melting point was in the range of 178 to 180 °C.

`Clc1ccc2c3c1c1c(n3CCNCC2)CCC1` (as salt: fumarate) [Example 38, 8-Chloro-2,3,4,5,10,11-hexahydro-1H,9H-cyclopenta[b][1,4]diazocino[7,8,1-hi]indole] returned a melting point of 226 to 228 °C.

For `Clc1ccc2c3c1c1c(n3CCNCC2)CCCC1` (as salt: fumarate) [Example 39, 8-Chloro-2,3,4,5,9,10,11,12-octahydro-1H-[1,4]diazocino[7,8,1-jk]carbazole], the melting point lay in the range of 199 to 201 °C.

For `Clc1ccc2c3c1C1CCCC1N3CCNCC2` (stereo not drawn) (as salt: fumarate) [Example 40, 8-Chloro-2,3,4,5,9,10,11,11a-octahydro-1H,8bH-cyclopenta[b][1,4]diazocino[7,8,1-hi]indole], the melting point lay within 169 to 170 °C.

For the compound `Clc1ccc2c3c1C1CCCCC1N3CCNCC2` (stereo not drawn) (as salt: fumarate) [Example 41, 8-Chloro-2,3,4,5,8b,9,10,11,12,12a-decahydro-1H-[1,4]diazocino[7,8,1-jk]carbazole], the melting point is 199 to 200 °C.

`CN1CCc2cccc3c2N(CC1)C1CCSCC31` (stereo not drawn) (as salt: fumarate) [Example 44, 3-Methyl-2,3,4,5,9,10,11,12-octahydro-1H,9H-[1,4]diazocino[7,8,1-hi]thiopyrano[4,3-b]indole] displayed a melting point of 187 to 189 °C.

For the compound `c1cc2c3c(c1)C1CCCC1N3CCNCC2` (stereo not drawn) (as salt: hydrochloride) [Example 4, 2,3,4,5,9,10,11,11a-Octahydro-1H,8bH-cyclopenta[b][1,4]diazocino[7,8,1-hi]indole], the melting point was in the range of 137 to 140 °C.

Turning to `Fc1ccc2c3c1[C@H]1CCCC[C@H]1N3CCNCC2` (single isomer, unassigned) (as salt: fumarate) [Example 32, (+)-(8bR*,12aR*)-8-Fluoro-2,3,4,5,8b,9,10,11,12,12a-decahydro-1H-[1,4]diazocino[7,8,1-jk]carbazole], the melting point was > 130 °C.

As for `Fc1ccc2c3c1[C@H]1CCCC[C@H]1N3CCNCC2` (single isomer, unassigned) (as salt: fumarate) [Example 33, (−)-(8bR*,12aR*)-8-Fluoro-2,3,4,5,8b,9,10,11,12,12a-decahydro-1H-[1,4]diazocino[7,8,1-jk]carbazole], the melting point fell in the range of 94 to 96 °C.

Take `Clc1ccc2c3c1[C@H]1CCCC[C@H]1N3CCNCC2` (single isomer, unassigned) (as salt: fumarate) [Example 42, (+)-(8bR*,12aR*)-8-Chloro-2,3,4,5,8b,9,10,11,12,12a-decahydro-1H-[1,4]diazocino[7,8,1-jk]carbazole]: the melting point was 170 to 173 °C.

Compound `Clc1ccc2c3c1[C@H]1CCCC[C@H]1N3CCNCC2` (single isomer, unassigned) (as salt: fumarate) [Example 43, (−)-(8bR*,12aR*)-8-Chloro-2,3,4,5,8b,9,10,11,12,12a-decahydro-1H-[1,4]diazocino[7,8,1-jk]carbazole] gave a melting point of 168 to 171 °C.
